Results published in US5041542A, “Substituted pyrimido[5,4-d]pyrimidine nucleosides” (Nucleic Acid Research Institute, priority 1988, dated 1991).
Converted amounts (≈) assume the structure as drawn. Read-outs that look alike come from different tables or passages of the source.

How the values were obtained:
[1] = tested on: herpes simplex virus type 2 (MS strain); experiment: In vitro antiviral activity, herpes simplex virus type 2 (virus rating); type: cell-based; details: Vero cells; VR >1.0 marked, 0.5 to 0.9 moderate, <0.5 weak or no activity
[2] = tested on: vaccinia virus (Elstree strain); type: cell-based; details: HeLa cells; VR >1.0 marked, 0.5 to 0.9 moderate, <0.5 weak or no activity
[3] = tested on: parainfluenza 3 (C243 strain); experiment: In vitro antiviral activity, parainfluenza 3 (virus rating); type: cell-based; details: Vero cells; VR >1.0 marked, 0.5 to 0.9 moderate, <0.5 weak or no activity
[4] = tested on: Herpes 2, parainfluenza 3 and Vaccinia; type: cell-based; details: tested in parallel with ARPP (8)
[5] = tested on: L1210 cells; experiment: In vitro cytotoxicity, L1210; type: cell-based, murine; details: Mus musculus, L1210, 72 h; 3 days, 37° C., MTT; read-out: Antitumor (ID50) L1210
Procedure: (§1) ^b (ID50) inhibitory dose is the μM concentration of the
(§2) In vitro cytotoxicity analysis was performed by using the following cell lines: L1210 (a murine leukemia), WI-L2 (a human B-lymphoblast), and LoVo/L (a human colon carcinoma). Cells were grown in RPMI 1640 medium supplemented with 10% fetal bovine serum, 20 mM HEPES, pH 7.4, and 2 mM glutamine. The cytotoxicity determinations were carried out in 96-well microtiter dishes containing a starting number of 5-10×10^3 cells per well and 0.1-100 μM concentrations of the compounds in triplicate wells. L1210 and WI-L2 were incubated with the compounds at 37° C. for 3 days, while Lovo/L was incubated for 5 days. After this time period, 25 μL of 4 mg/mL 3-(4,5-dimethylthiazol-2-yl)-2,5-diphenyltetrazolium bromide was added to each well and incubation was continued for 2 to 5 h. The formazan product was dissolved in isopropanol containing 0.04M HCl and the absorbance was determined with a microtiter plate reader. The absorbance was proportional to the number of cells.

[6] = tested on: WI-L2 cells; experiment: In vitro cytotoxicity, WI-L2; type: cell-based; details: Homo sapiens, WIL2, 72 h; 3 days, 37° C., MTT; read-out: Antitumor (ID50) WI-L2
Procedure: as §1, §2

[7] = tested on: LoVo/L cells; experiment: In vitro cytotoxicity, LoVo/L; type: cell-based; details: Homo sapiens, 120 h, 5 days, 37° C., MTT, read-out: Antitumor (ID50) LoVo/L
Procedure: as §1, §2

[8] = tested on: L1210; experiment: In vivo antitumor activity against L1210 in BDF1 mice; details: qd; for T/C: day 1, at maximum soluble dosage
Procedure: Compounds 8, 11, 14 and 17 were comparatively evaluated in vivo for efficacy against L1210 in BDF1 mice.
Mice were inoculated i.p. with 1×10^6 L1210 cells 24 hr before qd, day 1, i.p. drug delivery. Drugs were solubilized in water and delivered at the rate of 0.01 ml/g mouse weight. Then control mice/drug were injected i.p. with equivalent volumes of a 0.9% solution of NaCl, the means and standard deviations reflecting the postinoculation life spans of these mice ranged from 6.30±0.48 to 6.60±0.97 days.

[9] = delivered at 0.01 ml/g mouse weight
[10] = physchem; details: water
[11] = Lethal toxicity in treated mice; details: i.p., maximum soluble dosage
[12] = tested on: de novo purine biosynthesis in WI-L2 cells; experiment: Inhibition of de novo purine biosynthesis ([14C]formate incorporation); type: cell-based, human; details: for activity at 50 µM: pre-incubation 8 h
Procedure: Compounds of the invention were also tested for certain biochemical properties. Compounds of the invention were studied for their effect on de novo purine biosynthesis by observing inhibition of incorporation of [^14 C]formate into the acid-soluble fraction of WI-L2 cells (see Table 3). […] However, 8 and 14 (100 μM) were not cytotoxic to WI-L2 cells deficient in adenosine kinase activity.
A normal lymphoblast phenotype B cell line, WI-L2 was used. The enzyme-deficient cell lines used in vitro are: HPRT-, a hypoxanthine-guanine phosphorbosyl transferase (EC 2.4.2.8)deficient line and AK-, an adenosine kinase (EC 2.7.1.20)deficient line. Cells were cultured in RPMI 1640 medium containing 5% dialyzed fetal bovine serum, 20 mM Na HEPES, pH 7.5 and 2 mM glutamine and maintained in log phase growth between 0.5 and 12×10^5 cells/mL. The mutant cell lines were periodically reselected by treatment with 6-thioguanine (HPRT-) or tubercidin (AK-).
(§3) . Inhibition of de novo purine biosynthesis: WI-L2 or adenosine kinase-deficient cells were preincubated at 37° C. with drug for various time periods prior to labeling with [^14 C]formate. Enzyme Assays: Adenosine kinase inhibition studies were accomplished by the filter binding assay method. Inhibition studies were done at 37° C. with an assay mixture containing 4 mM ATP, 1.5 mM MgCl2, 5 or 10 μM [8-^14 C] adenosine (50 mCi/mmol) and 100 mM Tris-maleate, pH 5.5. To prevent the enzymatic breakdown of adenosine, erythro-9-(2-hydroxy-3-nonyl)adenine (EHNA) was added to the cell-free WI-L2 lysate to give 5 μM final assay concentration. The assay was started by the addition of protein. The amount of enzyme, time of assay and sampling volume were adjusted to give acceptable conversion of [8-^14 C] adenosine to [8-^14 C]AMP. Each DE-81 filter was spotted with a constant sampling volume and immersed in H 2 O (4 L) to terminate the reaction. Filters were washed three times with H2 O (4 L) and once with EtOH (100 mL). Dry filters were placed in scintillation vials and radioactivity was counted with 10 mL toluene-based scintillation cocktail.
De novo purine biosynthesis was measured by the incorporation of ^14 C-formate into cellular purine nucleotides or excreted purines after pre-incubation with compound.

[13] = Anomerization in aqueous solution (reverse-phase HPLC); type: physicochemical
Procedure: This would be expected where the rate of anomerization is slow compared to the rate of deamination.
The compounds of the invention are capable of crossing the cell membrane, and activated to the 5'-phosphate, thus causing the inhibition of the de novo purine biosynthesis.
as §3, with “HPLC Analysis: Sample components were separated with an LKB model 2150 gradient HPLC system at ambient temperature on an Altex Ultrashere-ODS reverse phase column (Beckman) developed with a linear gradient of buffer A (10 mM KPO4 ', pH 3.83) to 20% component B (60% aqueous CH3 CN) at a combined flow rate of 1.0 mL/min over 15 min. Ultraviolet (UV) absorbance was monitored with an LKB model 2140 diode array detector. Inhibition of” for “. Inhibition of”

[14] = tested on: pyrimidine (CTP + UTP) and purine (ATP + GTP) nucleoside triphosphates; experiment: 14C-bicarbonate incorporation into acid soluble pyrimidine and purine nucleoside triphosphates; type: cell-based
From the text: Comparative effect of compounds on ^14 C-bicarbonate
incorporation into acid soluble pyrimidine (PyrTP,
CTP + UTP) and purine (PurTP, ATP + GTP) nucleoside

[15] = Homo sapiens, WIL2, cell, read-out: de novo purine biosynthesis, % of control, cell, 50 μM
[16] = Homo sapiens, WIL2, media (excreted purines), read-out: de novo purine biosynthesis, % of control, media, 50 μM
[17] = read-out: PurTP, % control, 50.0 μM
[18] = read-out: PydTP, % control, 50.0 μM

| Compound | Antiviral (VR) HSV2 [1] [VR] | Antiviral (VR) VV [2] [VR] | Antiviral (VR) PI3 [3] [VR] | Antiviral activity in cell culture [4] | IC50 [5] [µM] | IC50 [6] [µM] | IC50 [7] [µM] | T/C [8] | Maximum watersoluble dosage [9] [mg/kg/inj.] | solubility [10] [µg/mL] | activity at 50 µM [12, 15] [%] | activity at 50 µM [12, 16] [%] | PurTP, 50.0 μM [14] [cpm/10^6 cells] | PyrTP, 50.0 μM [14] [cpm/10^6 cells] | CAA (carbamyl aspartate), 50.0 μM ([14]; zero = undetectable) [cpm/10^6 cells] | activity at 50 µM [14, 17] [%] | activity at 50 µM [14, 18] [%] | other results |
| --- | --- | --- | --- | --- | --- | --- | --- | --- | --- | --- | --- | --- | --- | --- | --- | --- | --- | --- |
| Nc1ncnc2c(N[C@H]3O[C@H](CO)[C@@H](O)[C@H]3O)ncnc12 [Compound 11, 4-Amino-8-(α-D-ribofuranosylamino)pyrimido[5,4-d]pyrimidine] | 0.2 | 1.0 | 1.4 | antiviral activity | 0.38 | 0.25 | 1 | 138 | 22 | 2200 (≈ 7.48 mM) |  |  |  |  |  |  |  | Postinoculation Lifespan (% T/C), 22 mg/kg/inj. ([8]; 22 mg/kg/inj. i.p., day 1): 138 % T/C; lethal toxicity at maximum soluble dosage [11]: Neither drug was lethally toxic at its maximum soluble dosage |
| COc1ncnc2c(N[C@H]3O[C@H](CO)[C@@H](O)[C@H]3O)ncnc12 [Compound 17, 4-Methoxy-8-(α-D-ribofuranosylamino)pyrimido[5,4-d]pyrimidine] | 0.1 | 0.9 | 0.7 | antiviral activity | 2.9 | 2.5 | 18.7 | 116 | 37 | 3700 (≈ 12 mM) |  |  |  |  |  |  |  | Postinoculation Lifespan (% T/C), 37 mg/kg/inj. ([8]; 37 mg/kg/inj. i.p., day 1): 116 % T/C; purine de novo assay, short term ([12]; 4 h): inactive; activity at 25 µM ([12]; Homo sapiens, WIL2, cell, 25 μM, pre-incubation 4 h, read-out: de novo purine biosynthesis, % of control, cell, 25 μM): 98.2%; purine de novo assay, longer incubation times ([12]; separate assays, longer incubation times): demonstrated the inhibitory activity |
| O=c1[nH]cnc2c(N[C@@H]3O[C@H](CO)[C@@H](O)[C@H]3O)ncnc12 [Compound 21, 8-(β-D-Ribofuranosylamino)pyrimido[5,4-d]pyrimidin-4(3H)-one] |  |  |  |  |  |  |  |  |  |  | 98.2 | 106 | 54484 | 15691 | 0 | 91.5 | 72.3 | anomeric equilibration in solution [13]: equilibrated from pure β-anomer into a mixture of α- and β-anomers |
| CN(C)c1ncnc2c(N[C@@H]3O[C@H](CO)[C@@H](O)[C@H]3O)ncnc12 [Compound 27, 4-Dimethylamino-8-(β-D-ribofuranosylamino)pyrimido[5,4-d]pyrimidine] |  |  |  |  |  |  |  |  |  |  | 50.7 | 85.8 | 40581 | 10177 | 0 | 68.2 | 46.9 |  |
| Nc1nc(N[C@@H]2O[C@H](CO)[C@@H](O)[C@H]2O)c2ncnc(N)c2n1 [Compound 35, 4,6-Diamino-8-(β -D-ribofuranosylamino)pyrimido[5,4-d]pyrimidine] |  |  |  |  |  |  |  |  |  |  | 91.2 | 89.8 | 58130 | 15267 | 0 | 97.7 | 70.4 |  |
| Nc1ncnc2c(N[C@@H]3O[C@H](CO)[C@@H](O)[C@H]3O)nc(Cl)nc12 [Compound 37, 4-Amino-6-chloro-8-(β-D-ribofuranosylamino)pyrimido[5,4-d]pyrimidine] |  |  |  |  |  |  |  |  |  |  | 16.4 | 43.4 |  |  |  |  |  | PurTP, 15.0 μM ([14]; 15.0 μM): 39833 cpm/10^6 cells; PyrTP, 15.0 μM ([14]; 15.0 μM): 13454 cpm/10^6 cells; CAA (carbamyl aspartate), 15.0 μM ([14]; 15.0 μM, zero = undetectable): 0 cpm/10^6 cells; activity at 15 µM ([14]; read-out: PurTP, % control, 15.0 μM): 66.9%; activity at 15 µM ([14]; read-out: PydTP, % control, 15.0 μM): 62% |
